{"source": "paper PMC3517478", "about": "(BMC Neurology, 2012)", "key": {"[1]": {"test_system": "α1β glycine receptors (wild-type)", "design": "method as in earlier work", "conditions": "heterologously expressed α1β wild-type (WT) glycine receptors; cited from earlier work"}, "[2]": {"biological_target": "T1, human α1R271L-GlyR expressed in HEK 293 cells (Homo sapiens, UniProt P23415, R299L)", "T1 sequence (P23415 29-457 R299L)": "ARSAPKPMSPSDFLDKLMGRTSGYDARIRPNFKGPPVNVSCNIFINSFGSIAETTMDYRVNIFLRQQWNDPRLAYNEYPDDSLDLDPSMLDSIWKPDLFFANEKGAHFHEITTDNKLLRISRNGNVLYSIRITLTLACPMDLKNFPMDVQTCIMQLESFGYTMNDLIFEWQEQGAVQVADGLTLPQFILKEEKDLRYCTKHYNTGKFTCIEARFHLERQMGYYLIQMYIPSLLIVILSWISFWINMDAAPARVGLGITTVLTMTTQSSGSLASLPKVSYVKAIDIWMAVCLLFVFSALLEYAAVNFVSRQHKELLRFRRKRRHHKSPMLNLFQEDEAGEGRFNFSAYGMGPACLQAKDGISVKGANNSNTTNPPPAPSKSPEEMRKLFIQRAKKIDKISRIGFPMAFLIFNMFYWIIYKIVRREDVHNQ", "assay": "Whole-cell patch-clamp, direct activation in the absence of glycine", "assay_type": "cell-based", "design": "expressed in transfected cells; host or cells: HEK 293 (transient, electroporation; pcDNA1amp vector)", "conditions": "R271L, 0.01-1000 μM", "method": "(§1) Drug-containing vials were vigorously vortexed for 30min.\n(§2) A new cell was used for each protocol and at least four different experiments were performed for each condition. The concentration of the diluent EtOH corresponding to the highest drug concentration used was 17150 μM.\n(§3) Currents were filtered at 2 kHz."}, "[3]": {"biological_target": "T2, human α1S267I-GlyR expressed in HEK 293 cells (Homo sapiens, UniProt P23415, S295I)", "T2 sequence (P23415 29-457 S295I)": "T1 sequence (P23415 29-457 R299L) with S267I, L271R", "assay": "Whole-cell patch-clamp, direct activation in the absence of glycine", "assay_type": "cell-based", "design": "expressed in transfected cells; host or cells: HEK 293 (transient, electroporation; pcDNA1amp vector)", "conditions": "S267I, 0.01-1000 μM", "method": "as §1, §2, §3"}, "[4]": {"biological_target": "T3, human α1R271K-GlyR expressed in HEK 293 cells (Homo sapiens, UniProt P23415, R299K)", "T3 sequence (P23415 29-457 R299K)": "T1 sequence (P23415 29-457 R299L) with L271K", "assay": "Whole-cell patch-clamp, direct activation in the absence of glycine", "assay_type": "cell-based", "design": "expressed in transfected cells; host or cells: HEK 293 (transient, electroporation; pcDNA1amp vector)", "conditions": "R271K", "method": "as §1, §2, §3"}, "[5]": {"biological_target": "T4, human α1R271Q-GlyR expressed in HEK 293 cells (Homo sapiens, UniProt P23415, R299Q)", "T4 sequence (P23415 29-457 R299Q)": "T1 sequence (P23415 29-457 R299L) with L271Q", "assay": "Whole-cell patch-clamp, direct activation in the absence of glycine", "assay_type": "cell-based", "design": "expressed in transfected cells; host or cells: HEK 293 (transient, electroporation; pcDNA1amp vector)", "conditions": "R271Q, 0.01-1000 μM", "method": "as §1, §2, §3"}}, "note": "Where a chain is given by its changes, count along the chain named."}
{"substance": "4-chloro-2,6-dimethylphenol [4-chloropropofol]", "values": [{"measurement": "potency relative to propofol in enhancing glycine induced currents", "setting": "[1]", "result": "~1000", "unit": "fold"}, {"measurement": "direct activation", "setting": "[2]", "result": "completely insensitive"}, {"measurement": "direct activation", "setting": "[3]", "result": "completely insensitive"}, {"measurement": "direct activation nH", "setting": "[4]", "result": "0.41 ± 0.15"}, {"measurement": "mean maximal activation (direct)", "setting": "[4]", "result": "77.2 ± 4.2", "unit": "%"}, {"measurement": "EC50", "setting": "[4]; 0.01-1000 μM, n = 5", "result": "16.4 ± 22.3", "unit": "µM"}, {"measurement": "direct activation", "setting": "[5]", "result": "only a marginal direct activation"}]}
